In patent US20240270750A1, “IMIDAZOLE-CONTAINING INHIBITORS OF ALK2 KINASE” (BioCryst Pharmaceuticals, Inc., priority 2021, published 2024) one finds inhibition data, which are given here for 13 compounds.

This test has as its target T1, ALK2 (Homo sapiens, UniProt Q04771).
T1 construct: purchased ThermoFisher Scientific (Life Technologies)
T1 sequence (Q04771 21-509): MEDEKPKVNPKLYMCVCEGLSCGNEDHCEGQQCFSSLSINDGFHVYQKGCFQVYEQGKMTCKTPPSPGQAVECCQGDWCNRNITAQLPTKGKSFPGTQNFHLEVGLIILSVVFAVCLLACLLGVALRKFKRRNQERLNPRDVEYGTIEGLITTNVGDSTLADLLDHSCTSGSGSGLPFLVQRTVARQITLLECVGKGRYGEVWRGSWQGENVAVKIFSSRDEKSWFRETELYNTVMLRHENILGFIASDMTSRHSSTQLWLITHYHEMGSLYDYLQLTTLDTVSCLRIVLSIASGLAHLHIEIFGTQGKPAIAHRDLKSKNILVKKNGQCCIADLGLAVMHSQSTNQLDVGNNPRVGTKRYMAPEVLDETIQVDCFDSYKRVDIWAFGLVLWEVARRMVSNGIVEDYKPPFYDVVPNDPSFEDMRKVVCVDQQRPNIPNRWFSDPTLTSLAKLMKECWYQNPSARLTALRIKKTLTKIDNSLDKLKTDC
The test can be described thus: LanthaScreen Eu Kinase Binding Assay, ALK2 inhibition. The conditions noted are these: 1 micromolar concentration. Here is the method: Biochemical assays to measure the inhibitory effects of the compounds were performed by ThermoFisher Scientific (Life Technologies). ALK2 inhibition was tested using LanthaScreen™ Eu Kinase Binding Assay screening protocol.

One may read the inhibition as the percentage by which the read-out fell short of the control. The compound `COc1cc(-n2cnc(Nc3nc(C(C)C)nc4c3ncn4C(C)C)c2)cc(OC)c1OC` [Compound 94a, 2,9-diisopropyl-N-(1-(3,4,5-trimethoxyphenyl)-1H-imidazol-4-yl)-9H-purin-6-amine] had an inhibition at 1 µM greater than 50%.
For the compound `C=CCC(C)c1nc(Nc2cn(-c3cc(OC)c(OC)c(OC)c3)cn2)c2cnn(C(C)C)c2n1` (stereo not shown) [Compound 27f, 1-isopropyl-6-(pent-4-en-2-yl)-N-(1-(3,4,5-trimethoxyphenyl)-1H-imidazol-4-yl)-1H-pyrazolo[3,4-d]pyrimidin-4-amine], the inhibition at 1 µM is greater than 50%.
In turn, `COc1cc(-n2cnc(Nc3nc(C(C)C)nc4c3cnn4C3CCCC3)c2)cc(OC)c1OC` [Compound 18c, 1-cyclopentyl-6-isopropyl-N-(1-(3,4,5-trimethoxyphenyl)-1H-imidazol-4-yl)-1H-pyrazolo[3,4-d]pyrimidin-4-amine] returned an inhibition at 1 µM greater than 50%.
As for `COc1cc(-n2cnc(Nc3nc(C4CC4)nc4c3cnn4CC(C)C)c2)cc(OC)c1OC` [Compound 117e, 6-cyclopropyl-1-isobutyl-N-(1-(3,4,5-trimethoxyphenyl)-1H-imidazol-4-yl)-1H-pyrazolo[3,4-d]pyrimidin-4-amine], the figure is greater than 50%.
`COc1cc(-n2cnc(Nc3nc(C4CCN(C)CC4)nc4c3cnn4C(C)C)c2)cc(OC)c1OC` [Compound 48a, 1-isopropyl-6-(1-methylpiperidin-4-yl)-N-(1-(3,4,5-trimethoxyphenyl)-1H-imidazol-4-yl)-1H-pyrazolo[3,4-d]pyrimidin-4-amine] returned an inhibition at 1 µM greater than 50%.
`COc1cc(-n2cnc(Nc3nc(C(C)C)nc4c3CCCC4)c2)cc(OC)c1OC` [Compound 89a, 2-isopropyl-N-(1-(3,4,5-trimethoxyphenyl)-1H-imidazol-4-yl)-5,6,7,8-tetrahydroquinazolin-4-amine] came in with an inhibition at 1 µM greater than 50%.
Then `COc1cc(-n2cnc(Nc3nc(C(C)C)c4ccccc4n3)c2)cc(OC)c1OC` [Compound 56a, 4-isopropyl-N-(1-(3,4,5-trimethoxyphenyl)-1H-imidazol-4-yl)quinazolin-2-amine], with greater than 50%; and `CNCCC(C)c1nc(Nc2cn(-c3cc(OC)c(OC)c(OC)c3)cn2)c2cnn(C(C)C)c2n1` (stereo not shown) [Compound 50a, 1-isopropyl-6-(4-(methylamino)butan-2-yl)-N-(1-(3,4,5-trimethoxyphenyl)-1H-imidazol-4-yl)-1H-pyrazolo[3,4-d]pyrimidin-4-amine], with greater than 50%; and `C=C(C)c1nc(Nc2cn(-c3cc(OC)c(OC)c(OC)c3)cn2)c2ccn(C(C)C)c2n1` [Compound 97c, 7-isopropyl-2-(prop-1-en-2-yl)-N-(1-(3,4,5-trimethoxyphenyl)-1H-imidazol-4-yl)-7H-pyrrolo[2,3-d]pyrimidin-4-amine], with greater than 50%.
Turning to `C=C(C)c1nc(Nc2cn(-c3cc(OC)c(OC)c(OC)c3)cn2)c2ccsc2n1` [Compound 80c, 2-(prop-1-en-2-yl)-N-(1-(3,4,5-trimethoxyphenyl)-1H-imidazol-4-yl)thieno[2,3-d]pyrimidin-4-amine], the inhibition at 1 µM was greater than 50%.
As for `COc1cc(-n2cnc(Nc3nc(C4=CN(C(=O)OC(C)(C)C)CC4)nc4c3cnn4C(C)C)c2)cc(OC)c1OC` [Compound 40b, tert-butyl 4-(1-isopropyl-4-((1-(3,4,5-trimethoxyphenyl)-1H-imidazol-4-yl)amino)-1H-pyrazolo[3,4-d]pyrimidin-6-yl)-2,3-dihydro-1H-pyrrole-1-carboxylate], the figure is greater than 50%; as for `COc1cc(-n2cnc(Nc3nc(C4CC(O)C4)nc4c3cnn4C(C)C)c2)cc(OC)c1OC` (stereo not shown) [Compound 58a, 3-(1-isopropyl-4-((1-(3,4,5-trimethoxyphenyl)-1H-imidazol-4-yl)amino)-1H-pyrazolo[3,4-d]pyrimidin-6-yl)cyclobutanol], greater than 50%; as for `C=C(C)c1nc(Nc2cn(-c3cc(OC)c(OC)c(OC)c3)cn2)c2cccn2n1` [Compound 61c, 2-(prop-1-en-2-yl)-N-(1-(3,4,5-trimethoxyphenyl)-1H-imidazol-4-yl)pyrrolo[2,1-f][1,2,4]triazin-4-amine], greater than 50%.
